Test [1] deals with T1, PARP7 (Homo sapiens, UniProt Q7Z3E1).
T1 sequence (Q7Z3E1 1-657): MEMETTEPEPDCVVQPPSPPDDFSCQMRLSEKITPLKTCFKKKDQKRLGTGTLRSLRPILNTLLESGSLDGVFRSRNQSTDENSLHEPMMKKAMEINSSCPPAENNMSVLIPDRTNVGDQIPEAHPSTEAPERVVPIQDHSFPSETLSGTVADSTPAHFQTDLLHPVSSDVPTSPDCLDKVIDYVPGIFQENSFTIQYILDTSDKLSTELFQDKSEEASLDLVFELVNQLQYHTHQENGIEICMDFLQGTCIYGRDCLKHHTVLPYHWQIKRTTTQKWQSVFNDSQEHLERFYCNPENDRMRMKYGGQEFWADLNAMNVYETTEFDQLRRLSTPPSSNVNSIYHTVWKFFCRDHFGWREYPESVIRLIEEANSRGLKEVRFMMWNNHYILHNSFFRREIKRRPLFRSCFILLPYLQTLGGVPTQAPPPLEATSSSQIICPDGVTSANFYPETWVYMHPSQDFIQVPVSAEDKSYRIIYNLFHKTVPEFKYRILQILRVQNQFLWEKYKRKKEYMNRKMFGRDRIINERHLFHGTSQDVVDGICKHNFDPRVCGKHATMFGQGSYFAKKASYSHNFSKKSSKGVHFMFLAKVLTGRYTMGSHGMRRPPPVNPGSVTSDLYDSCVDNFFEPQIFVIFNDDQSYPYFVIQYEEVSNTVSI
The test can be described thus: Probe Displacement Assay for PARP7 (MSD electrochemiluminescent, biotinylated probe RBNO11147). The following applies: displacement of biotinylated probe RBNO11147 from PARP7 NAD+-binding site; read-out: MSD ProbeDisp PARP7 IC50.
Protocol: Displacement of a biotinylated probe (RBNO11147; Wigle et al., Cell Chemical Biology, 2020, pp. 877-887) from the PARP7 NAD+-binding site was measured in vitro using a Mesoscale Discovery electrochemiluminescent assay. […] Next, 10 ml of 10 nM PARP7 protein incubated for 1 hour at room temperature with a dose response curve of each test compound in a Greiner LDV polypropylene plate (#781201) is added to the MSD plate containing the immobilized probe. The interaction is allowed to reach equilibrium for 1.5 hours, and then 10 ml of SULFO-TAG labeled anti-GST antibody (Cat #R32AA-1) is added to each well and allowed to incubate for an additional 1.5 hours at room temperature. Finally, 10 ml of MSD read buffer T (4×, Cat. #R92C-1) is added to each well using a Bravo liquid handler to prevent air bubbles in the wells, and the plates are subsequently read in an MSD instrument. Light intensity is then measured to quantify the amount of PARP7 bound to the immobilized probe on the plate.

In test [2] the test system is endogenous cellular STAT1 (phosphorylated at Tyr701) in NCI-H1373 cells. As to the kind of experiment: Phospho-STAT1 (Tyr701) LANCE Ultra TR-FRET Detection Assay. It counts as cell-based. The conditions noted are these: Homo sapiens, NCI-H1373, 48 h, phospho-STAT1 (Tyr701) induction, read-out: NH1373 pSTAT1 EC50. A general note: Time-resolved FRET reads energy transfer from a long-lived donor to a nearby acceptor.

These results are taken from patent US12459922B2 (Gilead Sciences, Inc., priority 2022, dated 2025).

Molecules are shown by their SMILES.

Consider `C[C@@H](CCCn1c(=O)[nH]c2cc(-c3ncc(C(F)(F)F)cn3)c(F)cc2c1=O)Nc1cn[nH]c(=O)c1C(F)(F)F` [Example 30, 6-fluoro-3-[(4S)-4-[[6-oxo-5-(trifluoromethyl)-1H-pyridazin-4-yl]amino]pentyl]-7-[5-(trifluoromethyl)pyrimidin-2-yl]-1H-quinazoline-2,4-dione], for which the IC50 in test [1] came to 0.3 nM. Besides, the EC50 in test [2] was found to be 18.6 nM.

As to `C[C@@H](CCCn1ccc2cc(-c3ccc(OC(F)(F)F)cn3)c(F)cc2c1=O)Nc1cn[nH]c(=O)c1C(F)(F)F` [Example 32, 7-fluoro-2-[(4S)-4-[[6-oxo-5-(trifluoromethyl)-1H-pyridazin-4-yl]amino]pentyl]-6-[5-(trifluoromethoxy)-2-pyridyl]isoquinolin-1-one], in test [1], the 50% inhibitory concentration (IC50) was 2.6 nM. The concentration giving a half-maximal response (EC50) in test [2] came to 187 nM.

In the case of `C[C@@H](CCCn1ccc2cc(-c3ncc(C(F)F)cn3)c(F)c(F)c2c1=O)Nc1cn[nH]c(=O)c1C(F)(F)F` [Example 53, (S)-6-(5-(difluoromethyl)pyrimidin-2-yl)-7,8-difluoro-2-(4-((6-oxo-5-(trifluoromethyl)-1,6-dihydropyridazin-4-yl)amino)pentyl)isoquinolin-1(2H)-one], in test [1], the IC50 came to 0.496 nM. The EC50 in test [2] is 17 nM.

Consider `C[C@@H](CCCn1ccc2cc(-c3ncc(C(F)(F)F)cn3)cc(F)c2c1=O)Nc1cn[nH]c(=O)c1C(F)(F)F` [Example 7, 8-fluoro-2-[(4S)-4-[[6-oxo-5-(trifluoromethyl)-1H-pyridazin-4-yl]amino]pentyl]-6-[5-(trifluoromethyl)pyrimidin-2-yl]isoquinolin-1-one], for which the 50% inhibitory concentration (IC50) in test [1] was 0.3 nM. Further, the EC50 in test [2] is 61.3 nM.

For the molecule `C[C@@H](CCCn1ccc2cc(-c3cnc(C(F)(F)F)cn3)c(F)cc2c1=O)Nc1cn[nH]c(=O)c1C(F)(F)F` [Example 21, 7-fluoro-2-[(4S)-4-[[6-oxo-5-(trifluoromethyl)-1H-pyridazin-4-yl]amino]pentyl]-6-[5-(trifluoromethyl)pyrazin-2-yl]isoquinolin-1-one], the IC50 in test [1] came out at 0.3 nM. The concentration giving a half-maximal response (EC50) in test [2] amounted to 136 nM.

On to `C[C@@H](CCCn1ccc2cc(-c3ncc(C(F)F)cn3)c(F)cc2c1=O)Nc1cn[nH]c(=O)c1C(F)(F)F` [Example 76, 6-[5-(difluoromethyl)pyrimidin-2-yl]-7-fluoro-2-[(4S)-4-[[6-oxo-5-(trifluoromethyl)-1H-pyridazin-4-yl]amino]pentyl]isoquinolin-1-one], for which the half-inhibitory concentration (IC50) in test [1] was 0.41 nM. For the same molecule, in test [2], the concentration for a half-maximal effect (EC50) was found to be 21.3 nM.

On to `O=c1[nH]ncc(N[C@@H](CO)CCCn2ccc3cc(-c4ncc(C(F)(F)F)cn4)c(F)c(F)c3c2=O)c1C(F)(F)F` [Example 163, 7,8-difluoro-2-[(4R)-5-hydroxy-4-[[6-oxo-5-(trifluoromethyl)-1H-pyridazin-4-yl]amino]pentyl]-6-[5-(trifluoromethyl)pyrimidin-2-yl]isoquinolin-1-one], for which the half-maximal inhibitory concentration (IC50) in test [1] worked out at 0.341 nM. Besides, the concentration giving a half-maximal response (EC50) in test [2] was determined as 62.8 nM.

For the molecule `Cc1cn(CCC[C@H](C)Nc2cn[nH]c(=O)c2C(F)(F)F)c(=O)c2ccc(-c3ncc(C(F)(F)F)cn3)cc12` [Example 46, 4-methyl-2-[(4S)-4-[[6-oxo-5-(trifluoromethyl)-1H-pyridazin-4-yl]amino]pentyl]-6-[5-(trifluoromethyl)pyrimidin-2-yl]isoquinolin-1-one], in test [1], the IC50 was found to be 0.824 nM. In test [2], the EC50 was determined as 432 nM.

Regarding `C[C@@H](CCCn1ccc2cc(-c3nc4ccccc4o3)c(F)cc2c1=O)Nc1cn[nH]c(=O)c1C(F)(F)F` [Example 307, (S)-6-(benzo[d]oxazol-2-yl)-7-fluoro-2-(4-((6-oxo-5-(trifluoromethyl)-1,6-dihydropyridazin-4-yl)amino)pentyl)isoquinolin-1(2H)-one], the 50% inhibitory concentration (IC50) in test [1] is 0.352 nM. Moreover, the concentration giving a half-maximal response (EC50) in test [2] came out at 11.2 nM.

Turning to `C[C@@H](CCCn1ccc2cc(-c3ncc(C(F)(F)F)cn3)ccc2c1=O)Nc1cn[nH]c(=O)c1C(F)(F)F` [Example 5, 2-[(4S)-4-[[6-oxo-5-(trifluoromethyl)-1H-pyridazin-4-yl]amino]pentyl]-6-[5-(trifluoromethyl)pyrimidin-2-yl]isoquinolin-1-one], in test [1], the half-inhibitory concentration (IC50) was determined as 0.3 nM. Also, the EC50 in test [2] was 143 nM.

In the case of `C[C@@H](CCCn1ccc2cc(-c3ncc(OC(F)F)cn3)c(F)c(F)c2c1=O)Nc1cn[nH]c(=O)c1C(F)(F)F` [Example 56, (S)-6-(5-(difluoromethoxy)pyrimidin-2-yl)-7,8-difluoro-2-(4-((6-oxo-5-(trifluoromethyl)-1,6-dihydropyridazin-4-yl)amino)pentyl)isoquinolin-1(2H)-one], the IC50 in test [1] was determined as 0.579 nM. Further, in test [2], the EC50 is 67.2 nM.

Regarding `Nc1nc(-c2cc3ccn(CCC[C@H](COC(F)F)Nc4cn[nH]c(=O)c4C(F)(F)F)c(=O)c3cc2F)ncc1C(F)(F)F` [Example 379, (R)-6-(4-amino-5-(trifluoromethyl)pyrimidin-2-yl)-2-(5-(difluoromethoxy)-4-((6-oxo-5-(trifluoromethyl)-1,6-dihydropyridazin-4-yl)amino)pentyl)-7-fluoroisoquinolin-1(2H)-one], the concentration for half-maximal inhibition (IC50) in test [1] is 0.14 nM. In addition, the 50% effective concentration (EC50) in test [2] was determined as 2.43 nM.

For the molecule `C[C@@H](CCCn1ccc2cc(-c3ncc(C#N)cn3)c(F)cc2c1=O)Nc1cn[nH]c(=O)c1C(F)(F)F` [Example 24, (S)-2-(7-fluoro-1-oxo-2-(4-((6-oxo-5-(trifluoromethyl)-1,6-dihydropyridazin-4-yl)amino)pentyl)-1,2-dihydroisoquinolin-6-yl)pyrimidine-5-carbonitrile], the IC50 in test [1] turned out to be 0.9 nM. In test [2], the EC50 came out at 220 nM.

Turning to `C[C@@H](CCCn1ccc2cc(-c3ncc(F)cn3)c(F)cc2c1=O)Nc1cn[nH]c(=O)c1C(F)(F)F` [Example 34, 7-fluoro-6-(5-fluoropyrimidin-2-yl)-2-[(4S)-4-[[6-oxo-5-(trifluoromethyl)-1H-pyridazin-4-yl]amino]pentyl]isoquinolin-1-one], the IC50 in test [1] came to 0.6 nM. Also, the EC50 in test [2] was determined as 429 nM.

Turning to `CC[C@@H](CCCn1cnc2cc(-c3ncc(C(F)(F)F)cn3)c(F)cc2c1=O)Nc1cn[nH]c(=O)c1C(F)(F)F` [Example 155, (S)-6-fluoro-3-(4-((6-oxo-5-(trifluoromethyl)-1,6-dihydropyridazin-4-yl)amino)hexyl)-7-(5-(trifluoromethyl)pyrimidin-2-yl)quinazolin-4(3H)-one], in test [1], the half-inhibitory concentration (IC50) is 0.2 nM. Also, the EC50 in test [2] is 21.2 nM.

Take `Cc1cc(NC2CC2)nc(-c2cc3ccn(CCC[C@H](C)Nc4cn[nH]c(=O)c4C(F)(F)F)c(=O)c3cc2F)n1` [Example 310, (S)-6-(4-(cyclopropylamino)-6-methylpyrimidin-2-yl)-7-fluoro-2-(4-((6-oxo-5-(trifluoromethyl)-1,6-dihydropyridazin-4-yl)amino)pentyl)isoquinolin-1(2H)-one]: the IC50 in test [1] is 1.3 nM. Moreover, the EC50 in test [2] worked out at 910 nM.

Take `C[C@@H](CCCn1cnc2cc(-c3ncc(C(F)(F)F)cn3)c(F)cc2c1=O)Nc1cn[nH]c(=O)c1C(F)(F)F` [Example 29, (S)-6-fluoro-3-(4-((6-oxo-5-(trifluoromethyl)-1,6-dihydropyridazin-4-yl)amino)pentyl)-7-(5-(trifluoromethyl)pyrimidin-2-yl)quinazolin-4(3H)-one]: the 50% inhibitory concentration (IC50) in test [1] was 1.6 nM. For the same molecule, the EC50 in test [2] stood at 31.6 nM.

Consider `C[C@@H](CCCn1ccc2cc(-c3ccc(C#N)cn3)cc(F)c2c1=O)Nc1cn[nH]c(=O)c1C(F)(F)F` [Example 18, (S)-6-(8-fluoro-1-oxo-2-(4-((6-oxo-5-(trifluoromethyl)-1,6-dihydropyridazin-4-yl)amino)pentyl)-1,2-dihydroisoquinolin-6-yl)nicotinonitrile], for which the 50% inhibitory concentration (IC50) in test [1] amounted to 0.4 nM. Besides, the EC50 in test [2] was 164 nM.

For the molecule `C[C@@H](CCCn1ccc2cc(-c3ccc(OC(F)F)cn3)c(F)cc2c1=O)Nc1cn[nH]c(=O)c1C(F)(F)F` [Example 43, 6-[5-(difluoromethoxy)-2-pyridyl]-7-fluoro-2-[(4S)-4-[[6-oxo-5-(trifluoromethyl)-1H-pyridazin-4-yl]amino]pentyl]isoquinolin-1-one], the half-inhibitory concentration (IC50) in test [1] turned out to be 0.76 nM. For the same molecule, in test [2], the EC50 came out at 311 nM.

For `C[C@@H](CCCn1ccc2cc(-c3nc(C(F)(F)F)n(C)n3)c(F)cc2c1=O)Nc1cn[nH]c(=O)c1C(F)(F)F` [Example 300, (S)-7-fluoro-6-(1-methyl-5-(trifluoromethyl)-1H-1,2,4-triazol-3-yl)-2-(4-((6-oxo-5-(trifluoromethyl)-1,6-dihydropyridazin-4-yl)amino)pentyl)isoquinolin-1(2H)-one], the half-inhibitory concentration (IC50) in test [1] came out at 0.413 nM. In addition, in test [2], the EC50 was determined as 56.1 nM.

As to `C[C@@H](CCCn1ccc2cc(-c3ccc(F)cn3)c(F)c(F)c2c1=O)Nc1cn[nH]c(=O)c1C(F)(F)F` [Example 52, (S)-7,8-difluoro-6-(5-fluoropyridin-2-yl)-2-(4-((6-oxo-5-(trifluoromethyl)-1,6-dihydropyridazin-4-yl)amino)pentyl)isoquinolin-1(2H)-one], the IC50 in test [1] worked out at 0.763 nM. The EC50 in test [2] came out at 164 nM.

In general, IC50 refers to the concentration that inhibits the measured activity by half. By EC50 is commonly meant the concentration needed to bring the measured effect to its halfway point.
